In patent publication US20080009418A1, “Selective Inhibitors” (Alchemia LTD., priority 2004, published 2008):

How the values were obtained:
Human δ-opioid (DOP) = molecular target: T1, Human δ-opioid (DOP) (Homo sapiens, UniProt P41143); test: Radioligand binding, human δ-opioid (DOP) membranes, FlashPlate, [3H]-Bremazocine; conditions: compound at 10 μM; for A1: inhibition of radioligand binding: [3H]-Bremazocine, FlashPlate; for A1 radioligand binding inhibition: human δ-opioid (DOP) membranes
T1 construct: purchased Perkin Elmer Biosignal
In short: (§1)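 Cloned human receptor membranes were coated onto FlashPlate wells and incubated with radioligand and compound (added from a 0.5 mM DMSO daughter plate) for 1 hour at room temperature in the dark. Scintillation counting gave percent inhibition, with DMSO defining total and reference ligand defining non-specific binding.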

Human κ-Opioid (KOP) = molecular target: T2, Human κ-Opioid (KOP) (Homo sapiens, UniProt P41145); test: Radioligand binding, human κ-opioid (KOP) membranes, filtration, [3H]-Diprenorphine; conditions: compound at 10 μM; for A2: inhibition of radioligand binding: [3H]-Diprenorphine, filtration; for A2 radioligand binding inhibition: human κ-opioid (KOP) membranes
T2 construct: purchased Perkin Elmer Biosignal
In short: (§2)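 Filtration binding on cloned human receptor membranes (1 Unit/well), [125I]-Substance P for NK1 and [3H]-Diprenorphine for KOP, 1 h at room temperature. Filters PEI-presoaked, washed with cold 50 mM Tris-HCl pH 7.4, counted by scintillation; percent inhibition calculated, reference ligand defining non-specific binding.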

Human Melanocortin (MC3) = molecular target: T3, Human Melanocortin (MC3) (Homo sapiens, UniProt P41968); test: Radioligand binding, human melanocortin MC3 membranes, FlashPlate, [125I]-NDP-αMSH; conditions: compound at 10 μM; for A3: inhibition of radioligand binding: [125I]-NDP-αMSH, FlashPlate; for A3 radioligand binding inhibition: human melanocortin MC3 membranes
T3 construct: purchased Perkin Elmer Biosignal
In short: as §1

Human Melanocortin (MC4) = molecular target: T4, Human Melanocortin (MC4) (Homo sapiens, UniProt P32245); test: Radioligand binding, human melanocortin MC4 membranes, FlashPlate, [125I]-NDP-αMSH; conditions: compound at 10 μM; for A4: inhibition of radioligand binding: [125I]-NDP-αMSH, FlashPlate; for A4 radioligand binding inhibition: human melanocortin MC4 membranes
T4 construct: purchased Perkin Elmer Biosignal
In short: as §1

Human melanocortin (MC5) = molecular target: T5, Human melanocortin (MC5) (Homo sapiens, UniProt P33032); test: Radioligand binding, human melanocortin MC5 membranes, FlashPlate, [125I]-NDP-αMSH; conditions: compound at 10 μM; for A5: inhibition of radioligand binding: [125I]-NDP-αMSH, FlashPlate; for A5 radioligand binding inhibition: human melanocortin MC5 membranes
T5 construct: purchased Perkin Elmer Biosignal
In short: as §1

[1] = molecular target: T6, Human melanin-concentrating hormone (MCH1) (Homo sapiens, UniProt Q99705); test: Radioligand binding, human melanin-concentrating hormone MCH1 membranes, FlashPlate, [125I]-S36057; conditions: compound at 10 μM; for A6: inhibition of radioligand binding: [125I]-S36057, FlashPlate; for A6 radioligand binding inhibition: human MCH1 membranes
T6 construct: purchased Perkin Elmer Biosignal
In short: as §1

Human μ-opioid (MOP) = molecular target: T7, Human μ-opioid (MOP) (Homo sapiens, UniProt P35372); test: Radioligand binding, human μ-opioid (MOP) membranes, FlashPlate, [3H]-Naloxone; conditions: compound at 10 μM; for A7: inhibition of radioligand binding: [3H]-Naloxone, FlashPlate; for A7 radioligand binding inhibition: human μ-opioid (MOP) membranes
T7 construct: purchased Perkin Elmer Biosignal
In short: as §1

Human neurokinin (NK1) = molecular target: T8, Human neurokinin (NK1) (Homo sapiens, UniProt P25103); test: Radioligand binding, human neurokinin NK1 membranes, filtration, [125I]-Substance P; conditions: compound at 10 μM; for A8: inhibition of radioligand binding: [125I]-Substance P, filtration; for A8 radioligand binding inhibition: human neurokinin NK1 membranes
T8 construct: purchased Perkin Elmer Biosignal
In short: as §2

[2] = molecular target: T9, Human neuropeptide Y (NPY-Y1) (Homo sapiens, UniProt P25929); test: Radioligand binding, human neuropeptide Y NPY-Y1 membranes, FlashPlate, [125I]-PYY; conditions: compound at 10 μM; for A9: inhibition of radioligand binding: [125I]-PYY, FlashPlate; for A9 radioligand binding inhibition: human NPY-Y1 membranes
T9 construct: purchased Perkin Elmer Biosignal
T9 sequence (P25929 1-384): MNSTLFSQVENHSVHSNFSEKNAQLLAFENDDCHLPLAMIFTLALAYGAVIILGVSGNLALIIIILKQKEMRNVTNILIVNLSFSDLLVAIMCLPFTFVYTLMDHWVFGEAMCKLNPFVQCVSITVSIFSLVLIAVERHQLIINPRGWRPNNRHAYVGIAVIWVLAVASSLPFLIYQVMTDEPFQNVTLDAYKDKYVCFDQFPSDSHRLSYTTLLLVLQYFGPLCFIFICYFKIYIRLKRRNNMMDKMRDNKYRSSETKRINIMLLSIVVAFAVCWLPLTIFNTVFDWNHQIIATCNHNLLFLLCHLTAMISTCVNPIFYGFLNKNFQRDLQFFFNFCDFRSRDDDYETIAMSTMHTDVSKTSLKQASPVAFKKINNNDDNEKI
In short: as §1

Human opioid (ORL1) = molecular target: T10, Human opioid (ORL1) (Homo sapiens, UniProt P41146); test: Radioligand binding, human opioid ORL1 membranes, FlashPlate, [125I]-Nociceptin; conditions: compound at 10 μM; for A10: inhibition of radioligand binding: [125I]-Nociceptin, FlashPlate; for A10 radioligand binding inhibition: human ORL1 membranes
T10 construct: purchased Perkin Elmer Biosignal
In short: as §1

Mouse urotensin (mUR2) = molecular target: T11, Mouse urotensin (mUR2) (Mus musculus, UniProt Q8VIH9); test: Radioligand binding, mouse urotensin mUR2 membranes, FlashPlate, [125I]-Urotensin II; conditions: compound at 10 μM; for A11: inhibition of radioligand binding: [125I]-Urotensin II, FlashPlate; for A11 radioligand binding inhibition: mouse urotensin mUR2 membranes
T11 construct: purchased Perkin Elmer Biosignal
T11 sequence (Q8VIH9 1-385): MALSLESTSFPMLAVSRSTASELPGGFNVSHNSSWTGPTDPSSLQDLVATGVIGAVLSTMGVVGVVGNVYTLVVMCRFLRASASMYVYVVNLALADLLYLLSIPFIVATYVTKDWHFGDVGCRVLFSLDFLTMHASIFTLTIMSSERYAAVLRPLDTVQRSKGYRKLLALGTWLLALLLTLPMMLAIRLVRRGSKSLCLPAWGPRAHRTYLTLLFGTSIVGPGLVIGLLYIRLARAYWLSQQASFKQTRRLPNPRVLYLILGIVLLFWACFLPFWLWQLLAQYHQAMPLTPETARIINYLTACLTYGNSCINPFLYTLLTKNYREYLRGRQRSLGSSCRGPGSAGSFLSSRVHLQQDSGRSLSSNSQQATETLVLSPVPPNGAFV
In short: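 Cloned mouse urotensin (mUR2) receptor membranes from Perkin Elmer Biosignal were immobilized in FlashPlate microplates using a proprietary coating. Each well got 19.5 μl buffer, then 0.5 μl of DMSO, reference ligand, or compound. Adding 5 μl of [125I]-Urotensin II, diluted to 5× final concentration in binding buffer, started binding. Plates were sealed with TopSeal-A and incubated 1 hour at room temperature in the dark. Wells were counted for 30 seconds each on a TopCount after a 60-second delay, and percentage inhibition was calculated.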

T3 sequence (P41968 whole entry): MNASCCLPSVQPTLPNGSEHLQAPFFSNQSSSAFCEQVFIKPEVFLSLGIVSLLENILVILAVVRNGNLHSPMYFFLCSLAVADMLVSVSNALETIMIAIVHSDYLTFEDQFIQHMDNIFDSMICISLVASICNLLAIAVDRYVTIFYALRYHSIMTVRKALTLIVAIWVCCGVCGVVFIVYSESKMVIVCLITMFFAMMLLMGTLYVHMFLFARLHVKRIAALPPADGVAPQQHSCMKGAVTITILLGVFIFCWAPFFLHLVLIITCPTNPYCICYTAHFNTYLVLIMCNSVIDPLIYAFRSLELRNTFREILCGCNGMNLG
T5 sequence (P33032 whole entry): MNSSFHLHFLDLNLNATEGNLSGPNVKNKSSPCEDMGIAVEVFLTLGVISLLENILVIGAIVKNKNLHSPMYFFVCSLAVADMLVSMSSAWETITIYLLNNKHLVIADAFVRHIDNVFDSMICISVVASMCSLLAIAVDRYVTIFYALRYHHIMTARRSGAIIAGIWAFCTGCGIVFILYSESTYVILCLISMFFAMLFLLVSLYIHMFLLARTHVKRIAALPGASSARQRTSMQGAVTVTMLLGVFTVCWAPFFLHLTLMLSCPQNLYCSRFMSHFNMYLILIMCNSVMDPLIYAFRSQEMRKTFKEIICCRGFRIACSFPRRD
T2 sequence (P41145 whole entry): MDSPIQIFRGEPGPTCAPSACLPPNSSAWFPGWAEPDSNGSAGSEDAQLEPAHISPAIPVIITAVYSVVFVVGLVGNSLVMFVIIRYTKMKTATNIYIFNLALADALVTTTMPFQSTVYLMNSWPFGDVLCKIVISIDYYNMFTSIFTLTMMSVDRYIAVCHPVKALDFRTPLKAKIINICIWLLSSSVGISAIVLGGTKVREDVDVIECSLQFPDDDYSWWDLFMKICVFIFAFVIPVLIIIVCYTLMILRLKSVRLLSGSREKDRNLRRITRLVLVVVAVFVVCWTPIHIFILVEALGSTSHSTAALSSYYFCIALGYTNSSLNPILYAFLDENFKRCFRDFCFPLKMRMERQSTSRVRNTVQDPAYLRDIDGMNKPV
T8 sequence (P25103 whole entry): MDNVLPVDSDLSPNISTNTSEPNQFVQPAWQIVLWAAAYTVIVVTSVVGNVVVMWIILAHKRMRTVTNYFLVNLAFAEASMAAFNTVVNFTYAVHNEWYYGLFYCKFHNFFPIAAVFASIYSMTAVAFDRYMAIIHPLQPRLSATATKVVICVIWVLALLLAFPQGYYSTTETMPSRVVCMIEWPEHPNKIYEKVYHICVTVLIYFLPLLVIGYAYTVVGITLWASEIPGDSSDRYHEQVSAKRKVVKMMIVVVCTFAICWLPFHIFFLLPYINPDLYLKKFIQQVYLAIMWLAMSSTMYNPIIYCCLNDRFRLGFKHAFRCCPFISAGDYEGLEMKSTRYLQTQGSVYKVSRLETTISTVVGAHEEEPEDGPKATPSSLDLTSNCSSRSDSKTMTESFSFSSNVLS
T6 sequence (Q99705 whole entry): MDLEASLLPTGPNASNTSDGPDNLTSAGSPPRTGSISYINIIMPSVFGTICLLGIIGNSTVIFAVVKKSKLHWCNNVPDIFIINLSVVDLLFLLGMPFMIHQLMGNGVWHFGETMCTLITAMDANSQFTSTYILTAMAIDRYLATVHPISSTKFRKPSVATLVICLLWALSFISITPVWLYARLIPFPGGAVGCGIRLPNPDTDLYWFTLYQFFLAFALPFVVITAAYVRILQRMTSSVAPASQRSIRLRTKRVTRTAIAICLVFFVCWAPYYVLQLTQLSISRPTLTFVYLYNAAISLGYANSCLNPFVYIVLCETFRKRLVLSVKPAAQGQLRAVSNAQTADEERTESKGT
T7 sequence (P35372 whole entry): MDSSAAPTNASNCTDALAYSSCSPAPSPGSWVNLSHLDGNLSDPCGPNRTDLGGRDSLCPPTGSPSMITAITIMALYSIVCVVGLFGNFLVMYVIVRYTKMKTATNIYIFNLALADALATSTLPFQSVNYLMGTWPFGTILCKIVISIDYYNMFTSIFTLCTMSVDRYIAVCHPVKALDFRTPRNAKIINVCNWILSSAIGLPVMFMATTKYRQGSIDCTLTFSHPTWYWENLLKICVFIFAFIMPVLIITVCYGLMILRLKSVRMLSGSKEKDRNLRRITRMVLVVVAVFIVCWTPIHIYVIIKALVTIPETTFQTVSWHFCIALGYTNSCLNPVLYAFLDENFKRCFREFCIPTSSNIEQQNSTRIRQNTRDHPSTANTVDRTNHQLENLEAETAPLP
T10 sequence (P41146 whole entry): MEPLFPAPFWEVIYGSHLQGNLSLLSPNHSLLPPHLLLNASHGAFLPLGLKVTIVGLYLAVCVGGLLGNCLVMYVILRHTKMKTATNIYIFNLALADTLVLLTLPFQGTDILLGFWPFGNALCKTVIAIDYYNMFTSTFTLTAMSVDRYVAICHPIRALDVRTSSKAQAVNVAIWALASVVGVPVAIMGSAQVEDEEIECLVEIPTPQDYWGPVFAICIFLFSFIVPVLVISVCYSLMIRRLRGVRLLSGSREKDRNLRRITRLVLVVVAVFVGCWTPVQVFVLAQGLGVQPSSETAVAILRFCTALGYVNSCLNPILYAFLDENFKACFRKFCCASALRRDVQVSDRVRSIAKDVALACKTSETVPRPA
T1 sequence (P41143 whole entry): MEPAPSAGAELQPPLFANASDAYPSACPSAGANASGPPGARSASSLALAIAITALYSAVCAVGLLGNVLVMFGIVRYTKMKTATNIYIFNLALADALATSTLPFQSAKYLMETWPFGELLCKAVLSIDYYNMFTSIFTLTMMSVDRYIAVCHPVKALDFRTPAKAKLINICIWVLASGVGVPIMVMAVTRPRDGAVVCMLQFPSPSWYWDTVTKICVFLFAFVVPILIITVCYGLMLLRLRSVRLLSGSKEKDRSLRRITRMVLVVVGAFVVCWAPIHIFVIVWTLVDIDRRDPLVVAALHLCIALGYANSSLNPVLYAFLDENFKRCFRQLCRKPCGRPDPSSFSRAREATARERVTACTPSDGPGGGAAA
T4 sequence (P32245 whole entry): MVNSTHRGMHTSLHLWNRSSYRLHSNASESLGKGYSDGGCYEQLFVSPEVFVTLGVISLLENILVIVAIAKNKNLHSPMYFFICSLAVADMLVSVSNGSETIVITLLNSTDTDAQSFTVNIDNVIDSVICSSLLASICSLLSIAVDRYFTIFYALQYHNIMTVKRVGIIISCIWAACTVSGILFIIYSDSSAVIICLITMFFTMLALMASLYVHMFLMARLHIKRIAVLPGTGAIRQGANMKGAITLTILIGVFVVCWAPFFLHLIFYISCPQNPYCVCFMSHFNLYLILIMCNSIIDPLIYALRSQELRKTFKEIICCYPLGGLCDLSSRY

Row | SMILES | A1: inhibition of radioligand binding (Human δ-opioid (DOP)) | A2: inhibition of radioligand binding (Human κ-Opioid (KOP)) | A3: inhibition of radioligand binding (Human Melanocortin (MC3)) | A4: inhibition of radioligand binding (Human Melanocortin (MC4)) | A5: inhibition of radioligand binding (Human melanocortin (MC5)) | A6: inhibition of radioligand binding [1] | A7: inhibition of radioligand binding (Human μ-opioid (MOP)) | A8: inhibition of radioligand binding (Human neurokinin (NK1)) | A9: inhibition of radioligand binding [2] | A10: inhibition of radioligand binding (Human opioid (ORL1)) | A11: inhibition of radioligand binding (Mouse urotensin (mUR2)) | A1 radioligand binding inhibition (Human δ-opioid (DOP)) | A2 radioligand binding inhibition (Human κ-Opioid (KOP)) | A3 radioligand binding inhibition (Human Melanocortin (MC3)) | A4 radioligand binding inhibition (Human Melanocortin (MC4)) | A5 radioligand binding inhibition (Human melanocortin (MC5)) | A6 radioligand binding inhibition [1] | A7 radioligand binding inhibition (Human μ-opioid (MOP)) | A8 radioligand binding inhibition (Human neurokinin (NK1)) | A9 radioligand binding inhibition [2] | other results
1 | COCC1OC(OCc2ccc3ccccc3c2)C(NC(=O)CCCNC(=N)N)C(OCc2ccccc2)C1O (centres unmarked) [compound 234] | − (“−” indicates less than 50% inhibition at 10 μM) | − (“−” indicates less than 50% inhibition at 10 μM) | − (“−” indicates less than 50% inhibition at 10 μM) | − (“−” indicates less than 50% inhibition at 10 μM) | − (“−” indicates less than 50% inhibition at 10 μM) | − (“−” indicates less than 50% inhibition at 10 μM) | − (“−” indicates less than 50% inhibition at 10 μM) | + (“+” indicates greater than 50% inhibition at 10 μM) | − (“−” indicates less than 50% inhibition at 10 μM) | − (“−” indicates less than 50% inhibition at 10 μM) | − (“−” indicates less than 50% inhibition at 10 μM) | – | – | – | – | – | – | – | – | – | –
2 | CO[C@H]1[C@H](O)[C@@H](COCc2ccc(-c3ccccc3)cc2)OC(OCc2ccc3ccccc3c2)[C@@H]1NC(=O)CCNC(=N)N (some centres unmarked) [compound 67] | – | – | – | – | – | – | – | – | – | – | – | + (“+” indicates greater than 50% inhibition at 10 μM) | − (“−” indicates less than 50% inhibition at 10 μM) | + (“+” indicates greater than 50% inhibition at 10 μM) | + (“+” indicates greater than 50% inhibition at 10 μM) | + (“+” indicates greater than 50% inhibition at 10 μM) | + (“+” indicates greater than 50% inhibition at 10 μM) | + (“+” indicates greater than 50% inhibition at 10 μM) | + (“+” indicates greater than 50% inhibition at 10 μM) | − (“−” indicates less than 50% inhibition at 10 μM) | A10 radioligand binding inhibition (Human opioid (ORL1)): + (“+” indicates greater than 50% inhibition at 10 μM); A11 radioligand binding inhibition (Mouse urotensin (mUR2)): − (“−” indicates less than 50% inhibition at 10 μM)
3 | CSC1OC(COCc2ccccc2)C(O)C(OCc2ccc(Cl)cc2)C1NC(=O)CCN (centres unmarked) [compound 266] | − (“−” indicates less than 50% inhibition at 10 μM) | − (“−” indicates less than 50% inhibition at 10 μM) | − (“−” indicates less than 50% inhibition at 10 μM) | − (“−” indicates less than 50% inhibition at 10 μM) | − (“−” indicates less than 50% inhibition at 10 μM) | − (“−” indicates less than 50% inhibition at 10 μM) | − (“−” indicates less than 50% inhibition at 10 μM) | + (“+” indicates greater than 50% inhibition at 10 μM) | − (“−” indicates less than 50% inhibition at 10 μM) | − (“−” indicates less than 50% inhibition at 10 μM) | − (“−” indicates less than 50% inhibition at 10 μM) | – | – | – | – | – | – | – | – | – | –
4 | COC[C@H]1OC(OCc2ccc(Cl)cc2)[C@H](NC(=O)CCNC(=N)N)[C@@H](OCc2ccc(-c3ccccc3)cc2)[C@@H]1O (some centres unmarked) [compound 29] | – | – | – | – | – | – | – | – | – | – | – | − (“−” indicates less than 50% inhibition at 10 μM) | − (“−” indicates less than 50% inhibition at 10 μM) | + (“+” indicates greater than 50% inhibition at 10 μM) | + (“+” indicates greater than 50% inhibition at 10 μM) | + (“+” indicates greater than 50% inhibition at 10 μM) | + (“+” indicates greater than 50% inhibition at 10 μM) | − (“−” indicates less than 50% inhibition at 10 μM) | + (“+” indicates greater than 50% inhibition at 10 μM) | − (“−” indicates less than 50% inhibition at 10 μM) | A10 radioligand binding inhibition (Human opioid (ORL1)): − (“−” indicates less than 50% inhibition at 10 μM); A11 radioligand binding inhibition (Mouse urotensin (mUR2)): − (“−” indicates less than 50% inhibition at 10 μM)
